For assay [1], the system named is influenza virus infection. As to conditions: treatment initiated within 48 hours of the onset of fever; cited from earlier work.
The subject of assay [2] is influenza. The assay is classed as in vivo, pediatric patients. As to conditions: proven influenza patients group in the first study period and second study period.

Take `CCOC(=O)C1=C[C@@H](OC(CC)CC)[C@H](NC(C)=O)[C@@H](N)C1` [Oseltamivir]: in assay [1], the “average duration of fever after the initiation of oseltamivir treatment” value is 1.7 days, the “patients afebrile (<37.5℃) within one day” value is listed as 44% and the “patients recovered within two days” value is 86%. For the same compound, in assay [2], the “admission duration, Group A compared with group B” value is recorded as “significant shorter” and the “frequency in pneumonia, Group A compared with group B” value is “lesser frequency”.

These data come from paper PMC3641313 (Korean Journal of Pediatrics, 2013).
